Series [1] deals with T1, recombinant human sEH (Homo sapiens, UniProt P34913).
T1 sequence (P34913 1-555): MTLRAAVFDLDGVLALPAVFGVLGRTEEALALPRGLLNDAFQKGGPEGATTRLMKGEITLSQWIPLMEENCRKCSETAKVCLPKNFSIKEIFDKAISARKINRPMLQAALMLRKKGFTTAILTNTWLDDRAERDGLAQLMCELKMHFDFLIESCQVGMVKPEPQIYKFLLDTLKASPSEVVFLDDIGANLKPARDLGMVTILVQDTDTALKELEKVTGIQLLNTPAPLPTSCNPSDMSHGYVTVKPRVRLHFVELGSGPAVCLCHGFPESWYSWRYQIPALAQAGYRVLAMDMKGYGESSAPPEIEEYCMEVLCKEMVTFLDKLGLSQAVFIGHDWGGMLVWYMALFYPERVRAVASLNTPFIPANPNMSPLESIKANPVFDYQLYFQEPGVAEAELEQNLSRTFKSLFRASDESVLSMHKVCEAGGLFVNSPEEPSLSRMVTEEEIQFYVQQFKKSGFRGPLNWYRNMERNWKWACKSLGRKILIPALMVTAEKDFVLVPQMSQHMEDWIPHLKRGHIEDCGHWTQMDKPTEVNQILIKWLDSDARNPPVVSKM
The experiment in a line: fluorescence-based sEH activity assay with PHOME substrate. Format: biochemical. From the text:
This assay is based on a reporter construct containing a firefly luciferase under the control of the FXR response element from bile salt export protein (BSEP). FXR and its hetero dimer partner retinoid X receptor (RXR) as expression constructs under the control of a CMV promoter as well as a constitutively expressed renilla luciferase (SV40 promoter) for normalization and toxicity control were co-transfected. […] The sEH inhibitory potency of the test compounds was quantified in a fluorescence-based assay using recombinant enzyme and the fluorogenic sEH substrate PHOME^37 that is hydrolyzed to a fluorescent 6-methoxynaphtaldehyde by sEH.
The sEH inhibitory potency of the compounds were determined in a fluorescence-based 96-well sEH activity assay using recombinant human enzyme^50,51. Non-fluorescent PHOME (3-phenylcyano-(6-methoxy-2-naphthalenyl)methyl ester 2-oxiraneacetic acid; Cayman Chemicals) which can be hydrolyzed by the sEH to fluorescent 6-methoxynaphthaldehyde served as substrate. Recombinant human sEH (in Bis-Tris buffer, pH 7, with 0.1 mg/mL BSA containing a final concentration of 0.01% Triton-X 100) was pre-incubated with test compounds (in DMSO, final DMSO concentration: 1%) for 30 min at room temperature. […] A blank control (no protein and no compound) as well as a positive control (no compound) were executed. All experiments were conducted in triplicate and repeated in at least three independent experiments. For IC50 calculation, dose-response curves of increasing compound concentrations were recorded.

The target of series [2] is T2, PPARδ (Homo sapiens, UniProt Q03181).
T2 construct: pFA-CMV-hPPARδ-LBD; expressed in transfected cells; host or cells: HEK293T
T2 sequence (Q03181 211-439 limits assumed): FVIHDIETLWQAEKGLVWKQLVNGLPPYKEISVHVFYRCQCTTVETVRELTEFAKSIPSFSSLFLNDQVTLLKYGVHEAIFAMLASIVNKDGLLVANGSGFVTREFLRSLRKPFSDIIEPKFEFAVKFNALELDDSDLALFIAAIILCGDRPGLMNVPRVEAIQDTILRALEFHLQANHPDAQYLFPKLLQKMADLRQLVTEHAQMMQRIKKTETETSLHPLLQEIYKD
The experiment in a line: Gal4-hybrid reporter gene assay PPARδ in HEK293T cells. Type of series: cell-based. The settings on record: 10 μM. The source says:
(§1) Hybrid reporter gene assays for PPARα/γ/δ, LXRα/β, RXRα/β/γ, RARα/β/γ, VDR and PXR Plasmids: The Gal4-fusion receptor plasmids pFA-CMV-hPPARα-LBD^52, pFA-CMV-hPPARγ-LBD^52, pFA-CMV-hPPARδ-LBD^52, pFA-CMV-hLXRα-LBD^32 and pFA-CMV-hLXRβ-LBD^32 have been reported previously. […] Frame and sequence of all fusion receptors were verified by sequencing. pFR-Luc (Stratagene) was used as reporter plasmid and pRL-SV40 (Promega) for normalization of transfection efficiency and cell growth.
(§2) Assay procedure: HEK293T cells were grown in DMEM high glucose, supplemented with 10% FCS, sodium pyruvate (1 mM), penicillin (100 U/mL) and streptomycin (100 μg/mL) at 37° C. and 5% CO2. The day before transfection, HEK293T cells were seeded in 96-well plates (2.5·10^4 cells/well). Before transfection, medium was changed to Opti-MEM without supplements. Transient transfection was carried out using Lipofectamine LTX reagent (Invitrogen) according to the manufacturer's protocol with pFR-Luc (Stratagene), pRL-SV40 (Promega) and pFA-CMV-hRXRα-LBD. 5 h after transfection, medium was changed to Opti-MEM supplemented with penicillin (100 U/mL), streptomycin (100 μg/mL), now additionally containing 0.1% DMSO and the respective test compound or 0.1% DMSO alone as untreated control. […] Luminescence was measured with an Infinite M200 luminometer (Tecan Deutschland GmbH). […]
For orientation: In a reporter assay the amount or activity of a reporter protein is the signal.

Series [3] can be described thus: in vivo pharmacokinetic evaluation in mice. Also noted: species or system mouse. The settings on record: single dose p.o. 10 mg/kg body weight. Here is the method:
Three additional animals served as vehicle control.
Food and water were available ad libitum.
A part of the blood was centrifuged (6000 rpm, 10 min, +4° C.) to obtain plasma for quantification of EET/DHET ratio and stored at −80° C. until further evaluation. For liver collection, mice were sacrificed by cervical dislocation after the last blood sampling (8 h post dose). Complete liver was immediately snap-frozen and stored at −80° C. until further evaluation. Plasma and liver were equally obtained from three control mice which received oral application of the vehicle (1% HPMC/Tween 80 (99:1)).

In series [4] the target is T3, LXRα (Homo sapiens, UniProt Q13133).
T3 construct: pFA-CMV-hLXRα-LBD; expressed in transfected cells; host or cells: HEK293T
T3 sequence (Q13133 209-447 limits assumed): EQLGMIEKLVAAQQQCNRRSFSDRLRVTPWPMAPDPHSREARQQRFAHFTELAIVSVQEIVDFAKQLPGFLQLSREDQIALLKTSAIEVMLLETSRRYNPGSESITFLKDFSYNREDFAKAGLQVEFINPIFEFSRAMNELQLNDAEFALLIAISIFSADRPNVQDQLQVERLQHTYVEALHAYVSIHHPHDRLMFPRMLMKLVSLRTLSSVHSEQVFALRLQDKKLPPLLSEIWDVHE
The experiment in a line: Gal4-hybrid reporter gene assay LXRα in HEK293T cells. The settings on record: 10 μM; printed as both LXR subtypes. Type of series: cell-based.
Excerpt: as §1, §2

The values below come from US20200172473A1, “DUAL MODULATORS OF FARNESOID X RECEPTOR AND SOLUBLE EPOXIDE HYDROLASE” (JOHANN WOLFGANG GOETHE-UNIVERSITÄT FRANKFURT AM MAIN, priority 2017, published 2020).

Like-named read-outs stand apart in the source and are kept apart here.

With `CC(C)(C)c1ccc(C(=O)NCc2ccc(NS(C)(=O)=O)cc2Cl)cc1` [compound 57, 4-(tert-Butyl)-N-(2-chloro-4-(methylsulfonamido)benzyl)benzamide], the IC50 (commonly the concentration needed to halve the response being measured) in series [1] (read-out: IC50 for sEH inhibition) worked out at 4.1 ± 0.4 nM. In addition, the 50% inhibitory concentration (IC50) in series [1] (recombinant human sEH, PHOME, read-out: sEH inhibition IC50) amounted to 4.1 ± 0.4 nM. The “activity on PPARδ” value in series [2] was “inactive”. Further, in series [3], the Cmax (as a rule, the peak of the concentration-time curve) amounted to 1182 ng/mL; the t1/2 is 42 min; the tmax was found to be 30 min. Moreover, the “activity on LXRα” value in series [4] was “inactive”.
